How the values were obtained:
Details in all cases: synthetic library passage 3, intravenous, relative to wild-type AAV9
[1] = system: brain, spinal cord, and DRG of the NHPs; experiment: NGS fold enrichment of synthetic library (passage 3) in NHPs, first cross-species screen; format: in vivo, cynomolgus macaques (Macaca fascicularis)
How it was run: (§1)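 Fold enrichment versus wild-type AAV9 was derived by NGS of RT-PCR-amplified RNA from nervous tissue, collected e.g. 28 days after IV dosing […]. The library (passage 3) was given to two NHPs aged 2-4 years and to 6-8-week BALB/c and C57Bl/6 mice (n=3 each).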

brain [2] = experiment: NGS fold enrichment of synthetic library (passage 3) in C57Bl/6 mice, first cross-species screen; format: in vivo
How it was run: as §1

brain [3] = experiment: NGS fold enrichment of synthetic library (passage 3) in BALB/c mice, first cross-species screen; format: in vivo
How it was run: as §1

GSGRNPQTQPLQQT
Fold enrichment over AAV9 in the brain of NHPs ([1]; RNA NGS, brain of NHPs): 1.519 fold
Fold enrichment over AAV9 in the spinal cord of NHPs ([1]; RNA NGS, spinal cord of NHPs): 0.040 fold
Fold enrichment over AAV9 in the brain of Mice (C57Bl/6) (brain [2]; RNA NGS, brain of C57Bl/6 mice): 0.733 fold
Fold enrichment over AAV9 in the brain of Mice (BALB/c) (brain [3]; RNA NGS, brain of BALB/c mice): 0.573 fold

GSGQNQQHVSSPRT
Fold enrichment over AAV9 in the brain of NHPs ([1]; RNA NGS, brain of NHPs): 2.176 fold
Fold enrichment over AAV9 in the spinal cord of NHPs ([1]; RNA NGS, spinal cord of NHPs): 1.279 fold
Fold enrichment over AAV9 in the brain of Mice (C57Bl/6) (brain [2]; RNA NGS, brain of C57Bl/6 mice): 1.847 fold
Fold enrichment over AAV9 in the brain of Mice (BALB/c) (brain [3]; RNA NGS, brain of BALB/c mice): 0.938 fold

GSGHIYVGIQNQQT
Fold enrichment over AAV9 in the brain of NHPs ([1]; RNA NGS, brain of NHPs): 2.178 fold
Fold enrichment over AAV9 in the spinal cord of NHPs ([1]; RNA NGS, spinal cord of NHPs): 6.428 fold
Fold enrichment over AAV9 in the brain of Mice (C57Bl/6) (brain [2]; RNA NGS, brain of C57Bl/6 mice): 0.989 fold
Fold enrichment over AAV9 in the brain of Mice (BALB/c) (brain [3]; RNA NGS, brain of BALB/c mice): 0.337 fold

GSNGGVGTGQNQQT
Fold enrichment over AAV9 in the brain of NHPs ([1]; RNA NGS, brain of NHPs): 2.130 fold
Fold enrichment over AAV9 in the spinal cord of NHPs ([1]; RNA NGS, spinal cord of NHPs): 0.788 fold
Fold enrichment over AAV9 in the brain of Mice (C57Bl/6) (brain [2]; RNA NGS, brain of C57Bl/6 mice): 1.191 fold
Fold enrichment over AAV9 in the brain of Mice (BALB/c) (brain [3]; RNA NGS, brain of BALB/c mice): 1.087 fold

GSGLDYSQRQNQQT
Fold enrichment over AAV9 in the brain of NHPs ([1]; RNA NGS, brain of NHPs): 2.056 fold
Fold enrichment over AAV9 in the spinal cord of NHPs ([1]; RNA NGS, spinal cord of NHPs): 0.837 fold
Fold enrichment over AAV9 in the brain of Mice (C57Bl/6) (brain [2]; RNA NGS, brain of C57Bl/6 mice): 0.484 fold
Fold enrichment over AAV9 in the brain of Mice (BALB/c) (brain [3]; RNA NGS, brain of BALB/c mice): 0.217 fold

GSGQNLAGRMDQQT
Fold enrichment over AAV9 in the brain of NHPs ([1]; RNA NGS, brain of NHPs): 1.864 fold
Fold enrichment over AAV9 in the spinal cord of NHPs ([1]; RNA NGS, spinal cord of NHPs): 0.085 fold
Fold enrichment over AAV9 in the brain of Mice (C57Bl/6) (brain [2]; RNA NGS, brain of C57Bl/6 mice): 0.362 fold
Fold enrichment over AAV9 in the brain of Mice (BALB/c) (brain [3]; RNA NGS, brain of BALB/c mice): 0.295 fold

GSGQNQHSLPAHRT
Fold enrichment over AAV9 in the brain of NHPs ([1]; RNA from brain of NHPs, NGS): 1.361 fold
Fold enrichment over AAV9 in the spinal cord of NHPs ([1]; RNA from spinal cord of NHPs, NGS): 0.700 fold
Fold enrichment over AAV9 in the brain of Mice (C57Bl/6) (brain [2]; RNA from brain of C57Bl/6 mice, NGS): 0.911 fold
Fold enrichment over AAV9 in the brain of Mice (BALB/c) (brain [3]; RNA from brain of BALB/c mice, NGS): 0.742 fold

GSGQNSYSHTSQQT
Fold enrichment over AAV9 in the brain of NHPs ([1]; RNA NGS, brain of NHPs): 1.765 fold
Fold enrichment over AAV9 in the spinal cord of NHPs ([1]; RNA NGS, spinal cord of NHPs): 2.262 fold
Fold enrichment over AAV9 in the brain of Mice (C57Bl/6) (brain [2]; RNA NGS, brain of C57Bl/6 mice): 1.130 fold
Fold enrichment over AAV9 in the brain of Mice (BALB/c) (brain [3]; RNA NGS, brain of BALB/c mice): 0.658 fold

GSGQNQHSVQVRQT
Fold enrichment over AAV9 in the brain of NHPs ([1]; RNA NGS, brain of NHPs): 1.116 fold
Fold enrichment over AAV9 in the spinal cord of NHPs ([1]; RNA NGS, spinal cord of NHPs): 1.909 fold
Fold enrichment over AAV9 in the brain of Mice (C57Bl/6) (brain [2]; RNA NGS, brain of C57Bl/6 mice): 0.782 fold
Fold enrichment over AAV9 in the brain of Mice (BALB/c) (brain [3]; RNA NGS, brain of BALB/c mice): 0.916 fold

GSGQNQQTGLRQQT
Fold enrichment over AAV9 in the brain of NHPs ([1]; RNA NGS, brain of NHPs): 1.533 fold
Fold enrichment over AAV9 in the spinal cord of NHPs ([1]; RNA NGS, spinal cord of NHPs): 2.120 fold
Fold enrichment over AAV9 in the brain of Mice (C57Bl/6) (brain [2]; RNA NGS, brain of C57Bl/6 mice): 1.217 fold
Fold enrichment over AAV9 in the brain of Mice (BALB/c) (brain [3]; RNA NGS, brain of BALB/c mice): 1.103 fold

GLNHFGASGQNQQT
Fold enrichment over AAV9 in the brain of NHPs ([1]; RNA NGS, brain of NHPs): 3.802 fold
Fold enrichment over AAV9 in the spinal cord of NHPs ([1]; RNA NGS, spinal cord of NHPs): 3.188 fold
Fold enrichment over AAV9 in the brain of Mice (C57Bl/6) (brain [2]; RNA NGS, brain of C57Bl/6 mice): 0.774 fold
Fold enrichment over AAV9 in the brain of Mice (BALB/c) (brain [3]; RNA NGS, brain of BALB/c mice): 0.579 fold

GSLLISTSGQNQQT
Fold enrichment over AAV9 in the brain of NHPs ([1]; RNA NGS, brain of NHPs): 1.919 fold
Fold enrichment over AAV9 in the spinal cord of NHPs ([1]; RNA NGS, spinal cord of NHPs): 5.763 fold
Fold enrichment over AAV9 in the brain of Mice (C57Bl/6) (brain [2]; RNA NGS, brain of C57Bl/6 mice): 1.488 fold
Fold enrichment over AAV9 in the brain of Mice (BALB/c) (brain [3]; RNA NGS, brain of BALB/c mice): 0.808 fold

GSGQILHSVPNQQT
Fold enrichment over AAV9 in the brain of NHPs ([1]; RNA NGS, brain of NHPs): 1.752 fold
Fold enrichment over AAV9 in the spinal cord of NHPs ([1]; RNA NGS, spinal cord of NHPs): 1.316 fold
Fold enrichment over AAV9 in the brain of Mice (C57Bl/6) (brain [2]; RNA NGS, brain of C57Bl/6 mice): 0.398 fold
Fold enrichment over AAV9 in the brain of Mice (BALB/c) (brain [3]; RNA NGS, brain of BALB/c mice): 0.240 fold

GRGVQQKLQQNQQT
Fold enrichment over AAV9 in the brain of NHPs ([1]; RNA NGS, brain of NHPs): 1.817 fold
Fold enrichment over AAV9 in the spinal cord of NHPs ([1]; RNA NGS, spinal cord of NHPs): 0.000 fold
Fold enrichment over AAV9 in the brain of Mice (C57Bl/6) (brain [2]; RNA NGS, brain of C57Bl/6 mice): 1.974 fold
Fold enrichment over AAV9 in the brain of Mice (BALB/c) (brain [3]; RNA NGS, brain of BALB/c mice): 0.823 fold

From patent US20260250318A1, “COMPOSITIONS AND METHODS FOR CROSSING THE BLOOD BRAIN BARRIER” (VOYAGER THERAPEUTICS, INC., priority 2022, published 2026)
